Source: patent US9738634B2, “Heterocyclic amide compound and herbicide” (SYNGENTA PARTICIPATIONS AG, priority 2013, dated 2017)

Assays:
Format in all cases: in vivo
Details in all cases: treatment dosage 320 g/ha
bulrush [1] = test: Test Example 1: weedkilling efficacy, preemergent weed treatment in the submerged state; B: bulrush
In short: (§1)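 Submerged pre-emergence treatment, water-surface application of compound emulsion at g/ha dosages; 4 cm flooded alluvial soil, weeds sown and 2.5-leaf rice transplanted same day. Rated after 3 weeks, greenhouse.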

fig-leafed goosefoot [2] = test: Test Example 4: weedkilling efficacy by foliar treatment; M: fig-leafed goosefoot
In short: (§2)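 Seeds are spot-sown into sterilized diluvial soil and covered with about 1.5 cm of soil. After 14 days' greenhouse growth at 25 to 30° C, plants are sprayed on stems and leaves with diluted emulsion at the stated g/ha rate, then scored at 3 weeks.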

black-grass [3] = test: Test Example 4: weedkilling efficacy by foliar treatment; H: black-grass
In short: as §2

Italian ryegrass [4] = test: Test Example 3: weedkilling efficacy through soil treatment; I: Italian ryegrass
In short: (§3)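 Crop and weed responses were judged three weeks after a uniform surface spray of the water-diluted emulsion at the given g/ha rate. Seeds sat beneath about 1.5 cm of sterilized diluvial soil, and boxes stood in a greenhouse at 25 to 30° C.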

rapeseed [5] = test: Test Example 3: soil treatment, effect on crop; g: rapeseed
In short: as §3

common wind-grass [6] = test: Test Example 4: weedkilling efficacy by foliar treatment; J: common wind-grass
In short: as §2

directly sown rice [7] = test: Test Example 4: foliar treatment, effect on crop; b: directly sown rice
In short: as §2

catchweed = test: Test Example 4: weedkilling efficacy by foliar treatment; O: catchweed
In short: as §2

crabgrass [8] = test: Test Example 3: weedkilling efficacy through soil treatment; D: crabgrass
In short: as §3

barnyard grass [9] = test: Test Example 1: weedkilling efficacy, preemergent weed treatment in the submerged state; A: barnyard grass
In short: as §1

beet [10] = test: Test Example 3: soil treatment, effect on crop; f: beet
In short: as §3

Italian ryegrass [11] = test: Test Example 4: weedkilling efficacy by foliar treatment; I: Italian ryegrass
In short: as §2

corn [12] = test: Test Example 4: foliar treatment, effect on crop; c: corn
In short: as §2

wild oat [13] = test: Test Example 4: weedkilling efficacy by foliar treatment; G: wild oat
In short: as §2

Indian mallow [14] = test: Test Example 4: weedkilling efficacy by foliar treatment; K: Indian mallow
In short: as §2

soybean [15] = test: Test Example 4: foliar treatment, effect on crop; d: soybean
In short: as §2

common wind-grass [16] = test: Test Example 3: weedkilling efficacy through soil treatment; J: common wind-grass
In short: as §3

crabgrass [17] = test: Test Example 4: weedkilling efficacy by foliar treatment; D: crabgrass
In short: as §2

green foxtail [18] = test: Test Example 4: weedkilling efficacy by foliar treatment; E: green foxtail
In short: as §2

chickweed [19] = test: Test Example 3: weedkilling efficacy through soil treatment; N: chickweed
In short: as §3

wild oat [20] = test: Test Example 3: weedkilling efficacy through soil treatment; G: wild oat
In short: as §3

soybean [21] = test: Test Example 3: soil treatment, effect on crop; d: soybean
In short: as §3

wheat [22] = test: Test Example 4: foliar treatment, effect on crop; e: wheat
In short: as §2

fig-leafed goosefoot [23] = test: Test Example 3: weedkilling efficacy through soil treatment; M: fig-leafed goosefoot
In short: as §3

birds-eye speedwell [24] = test: Test Example 3: weedkilling efficacy through soil treatment; p: birds-eye speedwell
In short: as §3

chickweed [25] = test: Test Example 4: weedkilling efficacy by foliar treatment; N: chickweed
In short: as §2

rapeseed [26] = test: Test Example 4: foliar treatment, effect on crop; g: rapeseed
In short: as §2

green foxtail [27] = test: Test Example 3: weedkilling efficacy through soil treatment; E: green foxtail
In short: as §3

redroot pigweed [28] = test: Test Example 4: weedkilling efficacy by foliar treatment; L: redroot pigweed
In short: as §2

wheat [29] = test: Test Example 3: soil treatment, effect on crop; e: wheat
In short: as §3

Indian mallow [30] = test: Test Example 3: weedkilling efficacy through soil treatment; K: Indian mallow
In short: as §3

transplanted rice = test: Test Example 1: preemergent weed treatment in the submerged state, effect on crop; a: transplanted rice
In short: as §1

directly sown rice [31] = test: Test Example 3: soil treatment, effect on crop; b: directly sown rice
In short: as §3

redroot pigweed [32] = test: Test Example 3: weedkilling efficacy through soil treatment; L: redroot pigweed
In short: as §3

oval-leafed pondweed [33] = test: Test Example 1: weedkilling efficacy, preemergent weed treatment in the submerged state; C: oval-leafed pondweed
In short: as §1

oval-leafed pondweed [34] = test: Test Example 2: weedkilling efficacy, growth period weed treatment in the submerged state; C: oval-leafed pondweed
In short: (§4)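 Seedlings at 1-2 leaves in 4 cm-deep submerged alluvial soil received emulsion formulations on the water surface, dosed per hectare; effects were judged 3 weeks on.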

barnyard grass [35] = test: Test Example 4: weedkilling efficacy by foliar treatment; F: barnyard grass
In short: as §2

black-grass [36] = test: Test Example 3: weedkilling efficacy through soil treatment; H: black-grass
In short: as §3

birds-eye speedwell [37] = test: Test Example 4: weedkilling efficacy by foliar treatment; p: birds-eye speedwell
In short: as §2

bulrush [38] = test: Test Example 2: weedkilling efficacy, growth period weed treatment in the submerged state; B: bulrush
In short: as §4

barnyard grass [39] = test: Test Example 2: weedkilling efficacy, growth period weed treatment in the submerged state; A: barnyard grass
In short: as §4

corn [40] = test: Test Example 3: soil treatment, effect on crop; c: corn
In short: as §3

beet [41] = test: Test Example 4: foliar treatment, effect on crop; f: beet
In short: as §2

barnyard grass [42] = test: Test Example 3: weedkilling efficacy through soil treatment; F: barnyard grass
In short: as §3

## CC1=C(c2ccccc2)C(=O)N(C(C)(C)C(=O)Nc2cc(C(F)(F)F)cc(F)n2)CO1 [B-2-40]
Bulrush [1]
  B (bulrush) weedkilling efficacy grade: 5 (weed kill ratio 90% or more, (practically complete withering))
fig-leafed goosefoot [2]
  M (fig-leafed goosefoot) weedkilling efficacy grade: 5 (weed kill ratio 90% or more, (practically complete withering))
black-grass [3]
  H (black-grass) weedkilling efficacy grade: 5 (weed kill ratio 90% or more, (practically complete withering))
Italian ryegrass [4]
  I (Italian ryegrass) weedkilling efficacy grade: 5 (weed kill ratio 90% or more, (practically complete withering))
Rapeseed [5]
  g (rapeseed) effect on crop grade: 4 (weed kill ratio 70% or more, less than 90%)
Common wind-grass [6]
  J (common wind-grass) weedkilling efficacy grade: 5 (weed kill ratio 90% or more, (practically complete withering))
Directly sown rice [7]
  b (directly sown rice) effect on crop grade: 5 (weed kill ratio 90% or more, (practically complete withering))
catchweed
  O (catchweed) weedkilling efficacy grade: 5 (weed kill ratio 90% or more, (practically complete withering))
Crabgrass [8]
  D (crabgrass) weedkilling efficacy grade: 5 (weed kill ratio 90% or more, (practically complete withering))
Barnyard grass [9]
  A (barnyard grass) weedkilling efficacy grade: 5 (weed kill ratio 90% or more, (practically complete withering))
Beet [10]
  f (beet) effect on crop grade: 3 (weed kill ratio 40% or more, less than 70%)
Italian ryegrass [11]
  I (Italian ryegrass) weedkilling efficacy grade: 5 (weed kill ratio 90% or more, (practically complete withering))
Corn [12]
  c (corn) effect on crop grade: 5 (weed kill ratio 90% or more, (practically complete withering))
Wild oat [13]
  G (wild oat) weedkilling efficacy grade: 5 (weed kill ratio 90% or more, (practically complete withering))
Indian mallow [14]
  K (Indian mallow) weedkilling efficacy grade: 5 (weed kill ratio 90% or more, (practically complete withering))
Soybean [15]
  d (soybean) effect on crop grade: 5 (weed kill ratio 90% or more, (practically complete withering))
Common wind-grass [16]
  J (common wind-grass) weedkilling efficacy grade: 5 (weed kill ratio 90% or more, (practically complete withering))
Crabgrass [17]
  D (crabgrass) weedkilling efficacy grade: 5 (weed kill ratio 90% or more, (practically complete withering))
Green foxtail [18]
  E (green foxtail) weedkilling efficacy grade: 5 (weed kill ratio 90% or more, (practically complete withering))
Chickweed [19]
  N (chickweed) weedkilling efficacy grade: 4 (weed kill ratio 70% or more, less than 90%)
Wild oat [20]
  G (wild oat) weedkilling efficacy grade: 5 (weed kill ratio 90% or more, (practically complete withering))
Soybean [21]
  d (soybean) effect on crop grade: 2 (weed kill ratio 20% or more, less than 40%)
Wheat [22]
  e (wheat) effect on crop grade: 1 (weed kill ratio 5% or more, less than 20%)
fig-leafed goosefoot [23]
  M (fig-leafed goosefoot) weedkilling efficacy grade: 5 (weed kill ratio 90% or more, (practically complete withering))
birds-eye speedwell [24]
  P (birds-eye speedwell) weedkilling efficacy grade: 5 (weed kill ratio 90% or more, (practically complete withering))
Chickweed [25]
  N (chickweed) weedkilling efficacy grade: 4 (weed kill ratio 70% or more, less than 90%)
Rapeseed [26]
  g (rapeseed) effect on crop grade: 4 (weed kill ratio 70% or more, less than 90%)
Green foxtail [27]
  E (green foxtail) weedkilling efficacy grade: 5 (weed kill ratio 90% or more, (practically complete withering))
Redroot pigweed [28]
  L (redroot pigweed) weedkilling efficacy grade: 5 (weed kill ratio 90% or more, (practically complete withering))
Wheat [29]
  e (wheat) effect on crop grade: 0 (weed kill ratio 5% or less (practically no effect))
Indian mallow [30]
  K (Indian mallow) weedkilling efficacy grade: 5 (weed kill ratio 90% or more, (practically complete withering))
Transplanted rice
  a (transplanted rice) effect on crop grade: 3 (weed kill ratio 40% or more, less than 70%)
Directly sown rice [31]
  b (directly sown rice) effect on crop grade: 5 (weed kill ratio 90% or more, (practically complete withering))
Redroot pigweed [32]
  L (redroot pigweed) weedkilling efficacy grade: 4 (weed kill ratio 70% or more, less than 90%)
oval-leafed pondweed [33]
  C (oval-leafed pondweed) weedkilling efficacy grade: 5 (weed kill ratio 90% or more, (practically complete withering))
oval-leafed pondweed [34]
  C (oval-leafed pondweed) weedkilling efficacy grade: 5 (weed kill ratio 90% or more, (practically complete withering))
Barnyard grass [35]
  F (barnyard grass) weedkilling efficacy grade: 5 (weed kill ratio 90% or more, (practically complete withering))
black-grass [36]
  H (black-grass) weedkilling efficacy grade: 5 (weed kill ratio 90% or more, (practically complete withering))
birds-eye speedwell [37]
  P (birds-eye speedwell) weedkilling efficacy grade: 4 (weed kill ratio 70% or more, less than 90%)
Bulrush [38]
  B (bulrush) weedkilling efficacy grade: 5 (weed kill ratio 90% or more, (practically complete withering))
Barnyard grass [39]
  A (barnyard grass) weedkilling efficacy grade: 5 (weed kill ratio 90% or more, (practically complete withering))
Corn [40]
  c (corn) effect on crop grade: 0 (weed kill ratio 5% or less (practically no effect))
Beet [41]
  f (beet) effect on crop grade: 4 (weed kill ratio 70% or more, less than 90%)
Barnyard grass [42]
  F (barnyard grass) weedkilling efficacy grade: 5 (weed kill ratio 90% or more, (practically complete withering))
